Like-named read-outs stand apart in the source and are kept apart here.
Columns and labels:
SK-MEL-25 = test: Melanoma cytotoxicity assay (resazurin); type: cell-based; conditions: SK-MEL-25 melanoma cells, 24 hours with compound, resazurin; concentration not given
In short: (§1)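 Following 24 h of compound treatment (triplicates, 37° C, 5% CO2) of cells seeded one day earlier at about 4000 per well, viability was gauged with resazurin. IC50 values derive from sigmoidal concentration–viability curves.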

gliosarcoma (SF-539) = test: NCI 60 five dose screen
HCT-15 (Colon Cancer) = test: NCI 60 one dose screen; type: cell-based, human
SK-MEL-28 = test: Melanoma cytotoxicity assay (resazurin); type: cell-based; conditions: SK-MEL-28 melanoma cells, 24 hours with compound, resazurin; concentration not given
In short: as §1

[1] = tested on: 60 different human tumor cell lines; test: cells
[2] = read-out: LC50, SF-539 (CNS Cancer), five dose

With “(1S,2R,13R,14S,18S)-7-(2,4-dimethylanilino)-2,18-dimethyl-6-thia-8-azapentacyclo[11.7.0.02,10.05,9.014,18]icosa-5(9),7,10-trien-17-one [IIa.14]” the “SK-MEL-25 (% inhibition)” value (SK-MEL-25) was 15%, the GI50 (gliosarcoma (SF-539); SF-539 (CNS Cancer), five dose) was 1.62 µM and the TGI (gliosarcoma (SF-539); SF-539 (CNS Cancer), five dose) was 3.08E−6. For the same compound, the CC50 (gliosarcoma (SF-539); [2]) was 5.86 µM and the “Growth Percent” value (HCT-15 (Colon Cancer)) was 0.81%.

C[C@]12CCc3nc(Nc4ccc(O)cc4)sc3C1=CC[C@@H]1[C@@H]2CC[C@]2(C)C(=O)CC[C@@H]12 [IIa.35] gave a GI50 (gliosarcoma (SF-539); SF-539 (CNS Cancer), five dose) of 1.76 µM, a TGI (gliosarcoma (SF-539); SF-539 (CNS Cancer), five dose) of 3.59E−6 and a CC50 (gliosarcoma (SF-539); [2]) of 7.34 µM. The “Growth Percent” value (HCT-15 (Colon Cancer)) was −67.96%.

With C[C@]12CCc3sc(Nc4cccc(O)c4)nc3C1=CC[C@@H]1[C@@H]2CC[C@]2(C)C(=O)CC[C@@H]12 [IIa.17, (1S,2R,13R,14S,18S)-7-(3-hydroxyanilino)-2,18-dimethyl-6-thia-8-azapentacyclo[11.7.0.02,10.05,9.014,18]icosa-5(9),7,10-trien-17-one] the “SK-MEL-25 (% inhibition)” value (SK-MEL-25) was 79%, the “SK-MEL-28 (% inhibition)” value (SK-MEL-28) was 87% and the GI50 (gliosarcoma (SF-539); Homo sapiens, SF-539) was 3.04 µM. It also gave a CC50 (gliosarcoma (SF-539); Homo sapiens, SF-539, read-out: LC50) of 79.9 µM, a TGI (gliosarcoma (SF-539); SF-539 (CNS Cancer), five dose) of 1.33E−5 and a GI50 ([1]; 60 cell) of 5.52 µM. The CC50 ([1]; 60 cell, read-out: LC50) was > 100 µM, the GI50 ([1]; 786-0) was 3.02 µM and the CC50 ([1]; 786-0, read-out: LC50) was > 100 µM. The GI50 ([1]; A498) was 28.8 µM, the CC50 ([1]; A498, read-out: LC50) was > 100 µM and the GI50 ([1]; A549) was 26.4 µM. For the same compound, the CC50 ([1]; A549, read-out: LC50) was > 100 µM, the GI50 ([1]; ACHN) was 7.81 µM and the CC50 ([1]; ACHN, read-out: LC50) was > 100 µM. The GI50 ([1]; BT-549) was 4.58 µM, the CC50 ([1]; BT-549, read-out: LC50) was > 100 µM and the GI50 ([1]; CAKI-1) was 13 µM. The CC50 ([1]; CAKI-1, read-out: LC50) was 70 µM, the GI50 ([1]; CCRF-CEM) was 2.84 µM and the CC50 ([1]; CCRF-CEM, read-out: LC50) was > 100 µM. For the same compound, the GI50 ([1]; COLO 205) was 12.3 µM, the CC50 ([1]; COLO 205, read-out: LC50) was > 100 µM and the GI50 ([1]; DU-145) was 4.34 µM. For the same compound, the CC50 ([1]; DU-145, read-out: LC50) was > 100 µM, the GI50 ([1]; EKVX) was 28.8 µM and the CC50 ([1]; EKVX, read-out: LC50) was > 100 µM. For the same compound, the GI50 ([1]; HCC 2998) was 18.2 µM, the CC50 ([1]; HCC 2998, read-out: LC50) was > 100 µM and the GI50 ([1]; HCT-15) was 2.53 µM. For the same compound, the CC50 ([1]; HCT-15, read-out: LC50) was > 100 µM, the GI50 ([1]; HCT-116) was 1.91 µM and the CC50 ([1]; HCT-116, read-out: LC50) was 9.09 µM. The GI50 ([1]; HOP-62) was 22.4 µM, the CC50 ([1]; HOP-62, read-out: LC50) was > 100 µM and the GI50 ([1]; HOP-92) was 18.7 µM. For the same compound, the GI50 ([1]; HT-29) was 3.9 µM, the CC50 ([1]; HT-29, read-out: LC50) was 75.2 µM and the GI50 ([1]; Hs-578T) was 12 µM. For the same compound, the CC50 ([1]; Hs-578T, read-out: LC50) was > 100 µM, the GI50 ([1]; IGROV-1) was 8.21 µM and the CC50 ([1]; IGROV-1, read-out: LC50) was > 100 µM. For the same compound, the GI50 ([1]; K562) was 2.79 µM, the CC50 ([1]; K562, read-out: LC50) was > 100 µM and the GI50 ([1]; KM12) was 8.27 µM. For the same compound, the CC50 ([1]; KM12, read-out: LC50) was 94.7 µM, the GI50 ([1]; LOX IMVI) was 3.22 µM and the CC50 ([1]; LOX IMVI, read-out: LC50) was 48.1 µM. The GI50 ([1]; M14) was 7.88 µM, the CC50 ([1]; M14, read-out: LC50) was > 100 µM and the GI50 ([1]; MCF7) was 3.85 µM. The CC50 ([1]; MCF7, read-out: LC50) was > 100 µM, the GI50 ([1]; MDA-MB-231) was 13.4 µM and the CC50 ([1]; MDA-MB-231, read-out: LC50) was > 100 µM. For the same compound, the GI50 ([1]; MDA-MB-435) was 3.49 µM, the CC50 ([1]; MDA-MB-435, read-out: LC50) was > 100 µM and the GI50 ([1]; MDA-MB-468) was 3.59 µM. The CC50 ([1]; MDA-MB-468, read-out: LC50) was 54.7 µM, the GI50 ([1]; MOLT-4) was 2.84 µM and the CC50 ([1]; MOLT-4, read-out: LC50) was ≥ 100 µM. The GI50 ([1]; Malme-3M) was 21.2 µM, the CC50 ([1]; Malme-3M, read-out: LC50) was > 100 µM and the GI50 ([1]; NCI-H23) was 18.1 µM. For the same compound, the CC50 ([1]; NCI-H23, read-out: LC50) was > 100 µM, the GI50 ([1]; NCI-H226) was 7.36 µM and the CC50 ([1]; NCI-H226, read-out: LC50) was > 100 µM. The GI50 ([1]; NCI-H322M) was 50.5 µM, the CC50 ([1]; NCI-H322M, read-out: LC50) was > 100 µM and the GI50 ([1]; NCI-H460) was 4.65 µM. For the same compound, the CC50 ([1]; NCI-H460, read-out: LC50) was > 100 µM, the GI50 ([1]; NCI-H522) was 6.6 µM and the CC50 ([1]; NCI-H522, read-out: LC50) was 69.3 µM. The GI50 ([1]; NCI/ADR-RES) was 6.34 µM, the CC50 ([1]; NCI/ADR-RES, read-out: LC50) was > 100 µM and the GI50 ([1]; OVCAR-3) was 4.41 µM. The CC50 ([1]; OVCAR-3, read-out: LC50) was > 100 µM, the GI50 ([1]; OVCAR-4) was 18.9 µM and the CC50 ([1]; OVCAR-4, read-out: LC50) was > 100 µM. The GI50 ([1]; OVCAR-5) was 24.5 µM, the CC50 ([1]; OVCAR-5, read-out: LC50) was > 100 µM and the GI50 ([1]; OVCAR-8) was 7.61 µM. For the same compound, the CC50 ([1]; OVCAR-8, read-out: LC50) was > 100 µM, the GI50 ([1]; RXF 393) was 3.18 µM and the CC50 ([1]; RXF 393, read-out: LC50) was 48.9 µM. For the same compound, the GI50 ([1]; SF-268) was 5.95 µM, the CC50 ([1]; SF-268, read-out: LC50) was > 100 µM and the GI50 ([1]; SK-MEL-2) was 17.1 µM. For the same compound, the CC50 ([1]; SK-MEL-2, read-out: LC50) was > 100 µM, the GI50 ([1]; SK-MEL-5) was 10.2 µM and the CC50 ([1]; SK-MEL-5, read-out: LC50) was 62.5 µM. For the same compound, the GI50 ([1]; SK-MEL-28) was 20.5 µM, the CC50 ([1]; SK-MEL-28, read-out: LC50) was > 100 µM and the GI50 ([1]; SK-OV-3) was 34 µM. The CC50 ([1]; SK-OV-3, read-out: LC50) was > 100 µM, the GI50 ([1]; SN12C) was 3.81 µM and the CC50 ([1]; SN12C, read-out: LC50) was > 100 µM. For the same compound, the GI50 ([1]; SNB-19) was 12.9 µM, the CC50 ([1]; SNB-19, read-out: LC50) was > 100 µM and the GI50 ([1]; SNB-75) was 5.4 µM. The CC50 ([1]; SNB-75, read-out: LC50) was > 100 µM, the GI50 ([1]; SW-620) was 3.38 µM and the CC50 ([1]; SW-620, read-out: LC50) was > 100 µM. For the same compound, the GI50 ([1]; T47D) was 3.5 µM, the CC50 ([1]; T47D, read-out: LC50) was > 100 µM and the GI50 ([1]; TK-10) was 7.47 µM. The CC50 ([1]; TK-10, read-out: LC50) was > 100 µM, the GI50 ([1]; U-251) was 4.41 µM and the CC50 ([1]; U-251, read-out: LC50) was 58.6 µM. It also gave a GI50 ([1]; UACC-62) of 9.54 µM, a CC50 ([1]; UACC-62, read-out: LC50) of 89.7 µM and a GI50 ([1]; UACC-257) of 23.8 µM. The CC50 ([1]; UACC-257, read-out: LC50) was > 100 µM, the GI50 ([1]; UO-31) was 5.26 µM and the CC50 ([1]; UO-31, read-out: LC50) was 49.9 µM. The “Growth Percent” value (HCT-15 (Colon Cancer)) was −47.90%.

Source: US20250296953A1, “3,4-THIAZOLO-STEROIDS AND METHODS OF MAKING AND USING THE SAME” (Arkansas State University - Jonesboro, priority 2018, published 2025)
